Laboratory results published in patent publication US6977265B2, “Piperidine CCR-3 receptor antagonists” (Roche Palo Alto LLC, priority 2001, dated 2005).
Counter-ions that a name gives are not always drawn.

biological target: T1, CCR-3 receptor (Homo sapiens, UniProt P51677); test: CCR-3 receptor binding assay, in vitro: inhibition of 125I eotaxin binding to CCR-3 L1.2 transfectant cells; conditions: inhibition of binding of 125I-eotaxin to CCR-3 L1.2 transfected cells, 1 hour at room temperature
T1 construct: expressed in transfected cells; host or cells: L1.2 (murine pre-B lymphoma line) stably transfected with CCR-3
T1 sequence (P51677 1-355): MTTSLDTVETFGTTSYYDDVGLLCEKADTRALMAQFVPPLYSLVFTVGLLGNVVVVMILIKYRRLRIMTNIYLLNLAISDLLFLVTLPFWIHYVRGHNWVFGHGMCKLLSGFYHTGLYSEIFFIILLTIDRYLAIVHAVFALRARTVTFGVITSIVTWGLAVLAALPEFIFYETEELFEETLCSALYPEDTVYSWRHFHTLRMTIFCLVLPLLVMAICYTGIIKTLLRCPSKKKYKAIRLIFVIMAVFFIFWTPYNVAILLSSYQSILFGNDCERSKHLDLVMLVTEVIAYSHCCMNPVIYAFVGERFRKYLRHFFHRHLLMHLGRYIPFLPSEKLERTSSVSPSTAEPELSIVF
Method: The CCR-3 antagonistic activity of the compounds of the invention was determined by their ability to inhibit the binding of ^125I eotaxin to CCR-3 L1.2 transfectant cells (see Ponath, P. D. et al., J. Exp. Med., Vol. 183, 2437-2448, (1996)).
The assay was performed in Costar 96-well polypropylene round bottom plates. Test compounds were dissolved in DMSO and then diluted with binding buffer (50 mM HEPES, 1 mM CaCl2, 5 mM MgCl2, 0.5% bovine serum albumin (BSA), 0.02% sodium azide, pH 7.24) such that the final DMSO concentration was 2%. 25 μl of the test solution or only buffer with DMSO (control samples) was added to each well, followed by the addition of 25 μl of ^125I-eotaxin ([…]) (NEX314, New England Nuclear, Boston, Mass.) and 1.5×10^5 of the CCR-3 L1.2 transfected cells in 25 μl binding buffer. The final reaction volume was 75 μl.
After incubating the reaction mixture for 1 hour at room temperature, the reaction was terminated by filtering the reaction mixture through polyethylenimine treated Packard Unifilter GF/C filter plate (Packard, Chicago, Ill.). The filters were washed four times with ice cold wash buffer containing 10 mm HEPES and 0.5M sodium chloride (pH 7.2) and dried at 65° C. for approximately 10 minutes. 25 μl/well of Microscint-20® scintillation fluid (Packard) was added and the radioactivity retained on the filters was determined by using the Packard TopCount®.

SMILES	IC50
O=C(Nc1ccc2ccccc2n1)N[C@@H]1CCC[C@H]1N1CCC(Cc2ccc(Cl)cc2)CC1 (racemic) [Compound 1, (±)-trans-1-{2-[4-(4-chlorobenzyl)piperidin-1-yl]cyclopentyl}-3-quinolin-2-yl-urea]	557 nM
CC(=O)Nc1cccc(NC(=O)N[C@@H]2CCC[C@H]2N2CCC(Cc3ccc(Cl)cc3)CC2)c1 [Compound 2]	18.5 nM
O=C(Nc1cccc(Cl)c1Cl)N[C@@H]1CCC[C@H]1N1CCC(Cc2ccc(Cl)cc2)CC1 [Compound 3]	1140 nM
O=C(NCCc1cccs1)N[C@@H]1CCC[C@H]1N1CCC(Cc2ccc(Cl)cc2)CC1 [Compound 4]	864 nM
O=C(N[C@@H]1CCC[C@H]1N1CCC(Cc2ccc(Cl)cc2)CC1)c1cc2cc(Cl)ccc2[nH]1 [Compound 5]	2690 nM
CC(=O)c1cccc(C(=O)N[C@@H]2CCC[C@H]2N2CCC(Cc3ccc(Cl)cc3)CC2)c1 [Compound 6]	1860 nM
COc1cc(CC(=O)N[C@@H]2CCC[C@H]2N2CCC(Cc3ccc(Cl)cc3)CC2)cc(OC)c1OC [Compound 7]	1480 nM
O=[N+]([O-])c1ccccc1S(=O)(=O)N[C@@H]1CCC[C@H]1N1CCC(Cc2ccc(Cl)cc2)CC1 [Compound 8]	6090 nM
O=C(N[C@@H]1CCC[C@H]1N1CCC(Cc2ccc(Cl)cc2)CC1)OCc1ccc([N+](=O)[O-])cc1 [Compound 9]	5120 nM
COc1ccc(NC(=S)N[C@@H]2CCC[C@H]2N2CCC(Cc3ccc(Cl)cc3)CC2)cc1 [Compound 10]	512 nM

tested on: not given; test: not given; conditions: not given

SMILES	melting point
COc1cc(NC(=O)N[C@@H]2CCC[C@@H]2N2CCC(Cc3ccc(Cl)cc3)CC2)cc(OC)c1OC (racemic) (as salt: hydrochloride)	117.5 to 122.5 °C
COc1cc(NC(=O)N[C@@H]2CN(C(C)=O)C[C@H]2N2CCC(Cc3ccc(Cl)cc3)CC2)cc(OC)c1OC (racemic) (as salt: hydrochloride)	155 to 161 °C
COc1cc(NC(=O)N[C@@H]2CCCC[C@@H]2N2CCC(Cc3ccc(Cl)cc3)CC2)cc(OC)c1OC (racemic) (as salt: hydrochloride)	120.1 to 137.3 °C
COc1cc(NC(=O)N[C@@H]2CN(S(C)(=O)=O)C[C@H]2N2CCC(Cc3ccc(Cl)cc3)CC2)cc(OC)c1OC (racemic) (as salt: hydrochloride)	148 to 158 °C
COc1cc(NC(=O)N[C@@H]2CN(S(=O)(=O)N(C)C)C[C@H]2N2CCC(Cc3ccc(Cl)cc3)CC2)cc(OC)c1OC (racemic) (as salt: hydrochloride)	141 to 143 °C
COc1cc(NC(=O)N[C@@H]2CN(C(=O)N(C)C)C[C@H]2N2CCC(Cc3ccc(Cl)cc3)CC2)cc(OC)c1OC (racemic) (as salt: hydrochloride)	142 to 144.5 °C
COc1cc(NC(=O)N[C@@H]2CN(C(N)=O)C[C@H]2N2CCC(Cc3ccc(Cl)cc3)CC2)cc(OC)c1OC (racemic) (as salt: hydrochloride)	158 to 162 °C
COC[C@@H]1C[C@@H](N2CCC(Cc3ccc(Cl)cc3)CC2)[C@H](NC(=O)Nc2cc(OC)c(OC)c(OC)c2)C1 (racemic) (as salt: hydrochloride)	109 to 112 °C
COc1cc(NC(=O)N[C@@H]2C[C@H](OC)C[C@H]2N2CCC(Cc3ccc(Cl)cc3)CC2)cc(OC)c1OC (racemic) (as salt: hydrochloride)	112.5 to 119.5 °C
COc1cc(NC(=O)N[C@@H]2CN(CC(N)=O)C[C@H]2N2CCC(Cc3ccc(Cl)cc3)CC2)cc(OC)c1OC (racemic) (as salt: hydrochloride)	160 to 165 °C
COc1cc(NC(=O)N[C@@H]2CN(CCS(C)(=O)=O)C[C@H]2N2CCC(Cc3ccc(Cl)cc3)CC2)cc(OC)c1OC (racemic) (as salt: hydrochloride)	210.2 to 211.8 °C
COc1cc(CCNC(=O)N[C@@H]2CCC[C@H]2N2CCC(Cc3ccc(Cl)cc3)CC2)cc(OC)c1OC (racemic) (as salt: hydrochloride)	90.3 to 95 °C
COc1cc(NC(=O)N[C@@H]2CN(S(N)(=O)=O)C[C@H]2N2CCC(Cc3ccc(Cl)cc3)CC2)cc(OC)c1OC (racemic) (as salt: hydrochloride)	155.7 to 160 °C
CS(=O)(=O)c1ccc(C(=O)N[C@@H]2CC[C@H]2N2CCC(Cc3ccc(Cl)cc3)CC2)cc1 (racemic) (as salt: hydrochloride)	173.2 to 184.1 °C
COc1cc(NC(=O)N[C@@H]2CC[C@H]2N2CCC(Cc3ccc(Cl)cc3)CC2)cc(OC)c1OC (racemic) (as salt: hydrochloride)	127.4 to 128.2 °C
CS(=O)(=O)c1cccc(NC(=O)N[C@@H]2CCCC[C@H]2N2CCC(Cc3ccc(Cl)cc3)CC2)c1 (racemic) (as salt: hydrochloride)	150.2 to 151.6 °C
COc1cc(NC(=O)N[C@@H]2CC[C@@H]2N2CCC(Cc3ccc(Cl)cc3)CC2)cc(OC)c1OC (racemic) (as salt: hydrochloride)	123.7 to 127.9 °C
COc1cc(NC(=O)N[C@@H]2CCC[C@H]2N2CCC(Cc3ccc(Cl)cc3)CC2)cc(OC)c1OC (racemic) (as salt: hydrochloride)	136.1 to 138 °C
COc1cc(NC(=O)N[C@@H]2COC[C@H]2N2CCC(Cc3ccc(Cl)cc3)CC2)cc(OC)c1OC (racemic) (as salt: hydrochloride)	229.2 to 230.9 °C
COc1cc(NC(=O)N[C@@H]2C[C@H](O)C[C@H]2N2CCC(Cc3ccc(Cl)cc3)CC2)cc(OC)c1OC (racemic) (as salt: hydrochloride)	137 to 143 °C
COc1cc(NC(=O)N[C@@H]2C[C@H](CO)C[C@H]2N2CCC(Cc3ccc(Cl)cc3)CC2)cc(OC)c1OC (racemic) (as salt: hydrochloride)	138 to 143 °C
COc1cc(NC(=O)N[C@@H]2CNC[C@H]2N2CCC(Cc3ccc(Cl)cc3)CC2)cc(OC)c1OC (racemic) (as salt: hydrochloride) [Example 9, (±)-trans-1-{4-[4-(4-chlorobenzyl)piperidin-1-yl]-pyrrolidin-3-yl}-3-(3,4,5-trimethoxyphenyl)urea dihydrochloride]	157 to 170 °C
CS(=O)(=O)c1ccc(C(=O)N[C@@H]2CCC[C@@H]2N2CCC(Cc3ccc(Cl)cc3)CC2)cc1 (racemic) (as salt: hydrochloride) [Example 11, (±)-cis-N-{2-[4-(4-chlorobenzyl)piperidin-1-yl]-cyclopentyl}-4-methanesulfonyl-benzamide hydrochloride]	125.3 to 131.9 °C
CS(=O)(=O)c1ccc(C(=O)N[C@@H]2CCCC[C@@H]2N2CCC(Cc3ccc(Cl)cc3)CC2)cc1 (racemic) (as salt: hydrochloride) [Example 14, (±)-cis-N-{2-[4-(4-chlorobenzyl)piperidin-1-yl]-cyclohexyl}-4-methanesulfonyl-benzamide hydrochloride]	123.7 to 149.4 °C
COc1cc(NC(=O)N[C@@H]2CCCC[C@H]2N2CCC(Cc3ccc(Cl)cc3)CC2)cc(OC)c1OC (racemic) [Example 1, (±)-trans-1-{2-[4-(4-chlorobenzyl)piperidin-1-yl]-cyclohexyl}-3-(3,4,5-trimethoxyphenyl)urea]	196.9 to 200 °C
COc1cc(NC(=O)N[C@@H]2C[C@H](O)C[C@H]2N2CCC(Cc3ccc(Cl)cc3)CC2)cc(OC)c1OC (racemic) [Example 6, (±)-1-{(1R,2R,4S)-2-[4-(4-chlorobenzyl)piperidin-1-yl]-4-hydroxy-cyclopentyl}-3-(3,4,5-trimethoxyphenyl)urea]	98.7 to 102 °C
COc1cc(NC(=O)N[C@@H]2CCC[C@H]2N2CCC(Cc3ccc(Cl)cc3)CC2)cc2ccccc12 (racemic) [Example 22, (±)-trans-1-{2-[4-(4-chlorobenzyl)piperidin-1-yl]-cyclopentyl}-3-(4-methoxy-naphthalen-2-yl)urea]	175 to 190 °C
